The values below come from patent US20040121021A1, “Determination of adequate ozone disinfection” (priority 2002, published 2004).

The nature of this series: Bleaching of dye-impregnated filter paper strips in flowing ozonated water. Type of series: physicochemical. An excerpt:
Each kind of indicator-impregnated substrate, or Ct strip, must be tested to empirically determine the Ct value range most suitable for that particular combination of indicator and substrate. To empirically determine the Ct value range for a Ct strip having a particular indicator impregnated onto a particular substrate having particular properties, the particular Ct strip is exposed to known concentrations of ozone over incremental periods of time. The resulting color of the substrate is recorded after given increments of time until the color is entirely bleached out or until a maximum desired exposure time has passed. The color of the Ct strip, after each time increment of immersion in a known concentration of ozone, is an accurate measure of the Ct value for an exposed surface. The resulting colors are recorded for comparison use, as on a color chart, for that particular combination of indicator and substrate. Strips of filter paper ½″×2″ were cut and immersed in a 1000 ppm solution of Solvent Green 3 (1,4-bis[(4-methylphenyl)amino]-9,10-anthracenedione) in acetone for 5 seconds at room temperature. When dyed in this manner, strips were initially an extremely dark green and dried to a medium green color. When submerged in a flowing bath of 3 ppm ozone dissolved in water, bleaching was observed. […] Strips of filter paper ½″×2″ were cut and immersed in a 1000 ppm solution of Solvent Red 23 in acetone for 5 seconds at room temperature. When submerged in a flowing bath of 5 ppm ozone dissolved in water, bleaching was observed. […] Strips of filter paper ½″×2″ were cut and immersed in a 1000 ppm solution of Solvent Violet 13 in acetone for 5 seconds at room temperature. When submerged in a flowing bath of 5 ppm ozone dissolved in water, bleaching was observed. […] Strips of filter paper ½″×2″ were cut and immersed in a 500 ppm solution of Solvent Yellow 33 in acetone for 5 seconds at room temperature. When submerged in a flowing bath of 6 ppm ozone dissolved in water, bleaching was observed.

Turning to `Cc1ccc(Nc2ccc(O)c3c2C(=O)c2ccccc2C3=O)cc1` [Solvent Violet 13], the color loss (filter paper strip dyed in 1000 ppm Solvent Red 23 solution in acetone, flowing bath of 5 ppm ozone dissolved in water, after 240 minutes) is around 75%.

For the molecule `Oc1ccc2ccccc2c1N=Nc1ccc(N=Nc2ccccc2)cc1` [Solvent Red 23], for the setting “filter paper strip dyed in 1000 ppm Solvent Red 23 solution in acetone, flowing bath of 5 ppm ozone dissolved in water, after 90 minutes”, the color loss was around 30%.

In the case of `Cc1ccc(Nc2ccc(Nc3ccc(C)cc3)c3c2C(=O)c2ccccc2C3=O)cc1` [Solvent Green 3, 1,4-bis[(4-methylphenyl)amino]-9,10-anthracenedione], the color loss (filter paper strip dyed in 1000 ppm solution in acetone, flowing bath of 3 ppm ozone dissolved in water, after 90 minutes) was around 40%.

For the molecule `O=C1c2ccccc2C(=O)C1c1ccc2ccccc2n1` [Solvent Yellow 33], the color loss result (filter paper strip dyed in 500 ppm solution in acetone, flowing bath of 6 ppm ozone dissolved in water, after 20 minutes) is “complete color loss”.
